US9770478B2, “Method for inhibiting neuronal cell aggregation” (NATIONAL TAIWAN NORMAL UNIVERSITY, priority 2014, dated 2017)
Blank lines part the entries; values can stand above or below the molecule they belong to.

Experiments:
293 ATXN3/Q75-GFP cells = assay: ATXN3/Q75 aggregation assay, high-content analysis; assay type: cell-based, human
Description: Glycyrrhizin is metabolized to 18β-glycyrrhetinic acid by intestinal bacteria. Therefore, ATXN3/Q75 aggregation assay was further performed with different concentrations of the 18β-glycyrrhetinic acid (0.1˜10 μM) and SAHA (0.1 μM) by the aforementioned method, aggregation percentage was assessed by HCA system.

HEK-293 cells = assay: IC50 cytotoxicity (MTT cell proliferation) / effective dose ratio
Description: H.; Kung, P. J.; Lin, T. H.; Wu, Y. C.; Wu, Y. R.; Chen, Y. C.; Lee-Chen, G. J.; Chen, C. […] Cell proliferation was measured based upon the reduction of 3-(4,5-dimethylthiazol-2-yl]-2,5-diphenyltetrazolium bromide (MTT). Briefly, 5×10^4 cells were plated into 48-well dishes, grown for 20 hr and treated with herbal extract (5˜30 mg/mL G. inflata or C. longa) or pure compound (100 nM˜1 mM AMGZ or licochalcone A). After one day, 20 μL MTT (5 mg/mL in PBS, Sigma) was added to cells and incubated for 2 hr. The absorbance of the insoluble purple formazan product was measured at 570 nm by a Bio-Tek μQuant Universal Microplate Spectrophotometer.
Then doxycycline (10 μg/mL, BD) and oxaliplatin (5 μM, Sigma) were added for 6 days.

[1] = tested on: SH-SY5Y ATXN3/Q75-GFP cells; assay: ATXN3/Q75 aggregation assay in retinoic acid differentiated neuronal cells; assay type: cell-based, human; details: one week
Description: SH-SY5Y ATXN3/Q75-GFP cells were seeded in 6-well (2×10^5/well) plate, with all trans retinoic acid (10 μM, Sigma) added at seeding time. At day 2, cells were treated with G. inflata or C. longa extract (10 μg/mL), AMGZ (0.2 μM) or licochalcone A (2 nM) for 8 hr, and then doxycycline (5 μg/mL) was added to induce ATXN3/Q75-GFP expression. After one week, cells were stained with Hoechst 33342 and aggregation percentage was assessed as described. The morphologic differentiation of untreated cells including total outgrowth, processes, and branches was assessed by using HCA system.

[2] = DPPH free radical scavenging assay; assay type: biochemical; details: 100 μM DPPH; for EC50: 30 min, room temperature
Description: The free radical scavenging activities of tested compounds and herbal extracts were determined using the stable 1,1-diphenyl-2-picrylhydrazyl (DPPH, Sigma) free radical assay (see Li, N.; Liu, J. H.; Zhang, J.; Yu, B. Y. Comparative evaluation of cytotoxicity and antioxidative activity of 20 flavonoids. Journal of Agricultural and Food Chemistry 56:3876-3883; 2008) with some modifications. Briefly, radical scavenging activity was measured in an ethanol mixture containing 100 μM DPPH radical solution and tested compounds (10˜200 μM) or herbal extracts (0.2˜4 mg/mL) The mixture was vortexed for 15 sec and then left to stand at room temperature for 30 min. Then, the scavenging capacity was measured by monitoring the decrease in absorbance at 517 nm by a Thermo Scientific Multiskan GO Microplate Spectrophotometer. The radical scavenging activity was calculated using the formula: 1−(absorbance of sample/absorbance of control)×100%. The antioxidative activity expressed as EC50 was defined as the concentration of the compounds required for inhibition of the formation of DPPH radicals by 50%.

Structure (SMILES): CC1(C)[C@@H](O)CC[C@]2(C)[C@H]3C(=O)C=C4[C@@H]5C[C@@](C)(C(=O)O)CC[C@]5(C)CC[C@@]4(C)[C@]3(C)CC[C@@H]12 [18β-glycyrrhetinic acid]
- ATXN3/Q75 aggregation as compared to untreated cells (293 ATXN3/Q75-GFP cells; 10 μM): 81%

Structure (SMILES): CC1(C)[C@@H](O[C@H]2O[C@H](C(=O)O)[C@@H](O)[C@H](O)[C@H]2O[C@@H]2O[C@H](C(=O)O)[C@@H](O)[C@H](O)[C@H]2O)CC[C@]2(C)[C@H]3C(=O)C=C4[C@@H]5C[C@@](C)(C(=O)O)CC[C@]5(C)CC[C@@]4(C)[C@]3(C)CC[C@@H]12 [AMGZ, ammonium glycyrrhizinate]
- IC50 cytotoxicity/effective dose ratio (HEK-293 cells; effective = reduced the ATXN3/Q75 aggregation to 85% or lower): > 10000
- aggregation reduction in ATXN3/Q75 expressed neuronal cells ([1]; 0.2 μM): 9%
- DPPH scavenging activity ([2]; tested compounds 10˜200 μM): no detectable DPPH scavenging activity

- EC50 [2]: 27 µM
Structure (SMILES): O=c1c(O)c(-c2ccc(O)cc2)oc2cc(O)cc(O)c12 [Kaempferol, reference compound]

Structure (SMILES): O=C(CCCCCCC(=O)Nc1ccccc1)NO [SAHA, suberoylanilide hydroxamic acid, reference compound]
- ATXN3/Q75 aggregation as compared to untreated cells (293 ATXN3/Q75-GFP cells; 100 nM, 8 hr pretreatment, then doxycycline and oxaliplatin 6 days): 85%

- EC50 [2]: 121 µM
Structure (SMILES): C=CC(C)(C)c1cc(/C=C/C(=O)c2ccc(O)cc2)c(OC)cc1O [licochalcone A]
- IC50 cytotoxicity/effective dose ratio (HEK-293 cells; human, 1 day): 3×10^5
- aggregation reduction in ATXN3/Q75 expressed neuronal cells ([1]; 2 nM): 10%
